Values of other authors as cited in patent publication US9744157B2, “Combinations of solifenacin and salivary stimulants for the treatment of overactive bladder” (TheraVida, Inc., priority 2011, dated 2017).

Tested on: saliva output
Settings: 5 mg of pilocarpine

For CC[C@@H]1C(=O)OC[C@@H]1Cc1cncn1C [pilocarpine], the “time of maximum saliva output after administration” value is listed as “about 30 minutes”.
